Results taken from paper PMC9045377, “CpxA Phosphatase Inhibitor Activates CpxRA and Is a Potential Treatment for Uropathogenic Escherichia coli in a Murine Model of Infection” (Microbiology Spectrum, 2022).
pEC50: −log10 of the molar value. “And” between values parts separate entries of the source, which are not always exact repeats. Equal entries are not always repeated.

Tests used:
CpxRA [1] = experiment: E. coli CpxR β-galactosidase reporter assay for CpxRA activation (reporter strain PAD282); assay type: cell-based, Escherichia coli
Protocol: E. coli strain CFT073 and its derivative CFT073ΔcpxA::cat were described previously and maintained on Luria broth (LB) plates at 37°C ([30]). The E. coli PcpxP′-lacZ reporter strain, PAD282, was the gift of Thomas Silhavy (Princeton University, Princeton, NJ, USA) and was maintained on TB plates at 37°C ([31]). HepG2 hepatocellular carcinoma cells were the gift of Andy Yu (Indiana University, Indianapolis, IN) and were grown in RPMI […] medium (Gibco) containing 10% fetal calf serum (HyClone) and 1 mM sodium pyruvate (Sigma) at 37°C with 5% CO2 as described ([31]).
Compounds 1 and 6 were purchased from ChemDiv and Aurum Pharmatech, respectively ([31], [32]). Compound 26 was synthesized and purified by the Duerfeldt laboratory as described ([32]). All compounds were dissolved in DMSO prior to use in this assay. The EC50 values for each compound were determined by measuring the β-galactosidase activity of the reporter strain PAD282 as previously reported ([31]). Briefly, PAD282 was cultured overnight in TB medium with 0.4% glucose and diluted into a 384-well plate, which contained the compounds in concentrations ranging from 0 to 160 μM, and incubated for 5 h at 37°C with no shaking. The All-in-One β-galactosidase reagent (Pierce) was added and the OD420, OD550, and OD600 of the wells were measured by a SpectraMax 384 plate reader. EC50 values were determined from 3 separate experiments done in triplicate using GraphPad Prism software using a nonlinear fit model. In some experiments, EC50 values were determined in the presence and absence of 10% human AB serum (Sigma).

[2] = Toxicity / clinical signs in mice; assay type: in vivo, female CBA/J mice
Protocol: We tested our initial hit, compound 1 ([31]) (Fig. 1), for toxicity in a murine model using criteria described in Materials and Methods. […] To test compound 1 for efficacy, female CBA/J mice were transurethrally inoculated with ∼1 × 10^8 CFU of UPEC strain CFT073; 12 h later, mice were treated with 100 mg/kg compound 1 (n = 10) or the vehicle control (n = 5) s.c. twice a day for 3 days and then sacrificed 4 h after the last dose. No effect was seen on the recovery of E. coli CFT073 in the urine, bladder, or kidneys (see Fig. S1 in the supplemental material). As compound 1 lacked efficacy, we aimed to improve the scaffold to enhance potency and eliminate the nitro group liability ([32]).
We developed a high-performance liquid chromatography-tandem mass spectrometry (HPLC-MS/MS) assay to measure compound 6 with a lower limit of quantification of 1 ng/mL. Single-dose PK parameters of compound 6 were determined in female CBA/J mice (n = 15) given 100 mg/kg s.c. dissolved in the vehicle. Blood was obtained from groups of 3 mice 1, 2, 4, 8, and 24 h postinjection.
Animal experiments were conducted according to the guidelines of the Indiana University School of Medicine Institutional Animal Care and Use Committee by the IU Simon Comprehensive Cancer Center In Vivo Therapeutics Core, a component of the Indiana Clinical Translational Science Institute. For the pilot toxicity study with compound 1, 4- to 6-week-old CBA/J female mice were obtained from Jackson Laboratory (Bar Harbor, ME) and were treated with compound 1 or the vehicle control twice a day for 3 days as described in the results. […] Toxicity was determined by the following criteria: deteriorating health-hunched posture, lack of grooming, failure to thrive, failure to eat and drink for >48 h, rapid loss of 15 to 20% body weight, inactivity with hunched posture, loss of righting reflex and inability to maintain upright posture, loss of general body condition with spine becoming visible, and dehiscence of wounds and/or evidence of infection at injection sites not responsive to veterinary treatment.

CpxRA [3] = system: CpxRA; design: method as in PMID 31104993; conditions: β-galactosidase reporter assay in E. coli; read-out: mean 50% effective concentration (EC50), CpxRA activation; cited from earlier work
[4] = infected mice, 100 mg/kg s.c. at 12, 36, 60 h

| Compound | effect of 10% human AB serum on activity in the reporter assay (CpxRA [1]; 10% human AB serum present vs absent) | fold lower EC50 (more potent) than compound 1 (CpxRA [1]; reporter assay) | concentration for peak activation of CpxR (CpxRA [1]; reporter assay, Fig. S2) | clinical signs during efficacy trial [2, 4] | clinical signs of toxicity at 24 h ([2]; single dose 100 mg/kg s.c.) | tremors ([2]; single dose 100 mg/kg s.c., n = 15, one mouse from 30 min (severe at 2 h), six mice after 1 h) | clinical signs, all treated mice ([2]; single dose 100 mg/kg s.c., from 10 min after injection to the 8-h time point) | pEC50 (CpxRA [3]) | fold lower EC50 (more potent) than compound 6 (CpxRA [1]; reporter assay) | signs of toxicity during efficacy trial [2, 4] |
| --- | --- | --- | --- | --- | --- | --- | --- | --- | --- | --- |
| NC1CCCc2c1[nH]c1ccc(F)cc21 (centres unmarked) [compound 6] | not affected | 3.2 fold and 3 fold | 10 µM | None of the compound 6-treated animals exhibited decreased activity, tremors, or squinting | No mice showed clinical signs of toxicity | slight tremors | slightly decreased activity and squinting | 5.11 |  |  |
| N[C@@H]1CCCc2c1[nH]c1cc(F)c(F)cc21 [compound 26] |  |  |  |  |  |  |  | 5.96 | ~7 fold | None of the compound 26-treated animals exhibited signs of toxicity |
